Activity calls are given as the source filed them.
What was measured:
Assay type in all cases: functional, organism-based
[1] = test system: Mus musculus; experiment: Anti-NASH activity in CCl4-induced nonalcoholic steatohepatitis C57BL mouse assessed as reduction in liver index at 100 mg/kg
[2] = test system: Mus musculus; experiment: Anti-NASH activity in CCl4-induced nonalcoholic steatohepatitis C57BL mouse assessed as reduction in HYP content in liver at 100 mg/kg administered for 14 days; settings: time 14.0 day
[3] = test system: Mus musculus; experiment: Anti-NASH activity in CCl4-induced nonalcoholic steatohepatitis C57BL mouse assessed as reduction in steatosis at 100 mg/kg by H and E staining based assay
[4] = test system: Mus musculus; experiment: Anti-NASH activity in CCl4-induced nonalcoholic steatohepatitis C57BL mouse assessed as reduction in liver ballooning degeneration at 100 mg/kg by H and E staining based assay
[5] = test system: Mus musculus; experiment: Anti-NASH activity in CCl4-induced nonalcoholic steatohepatitis C57BL mouse assessed as reduction in liver lobular inflammation at 100 mg/kg by H and E staining based assay
[6] = test system: Mus musculus; experiment: Anti-NASH activity in CCl4-induced nonalcoholic steatohepatitis C57BL mouse assessed as reduction in liver fibrosis at 100 mg/kg by sirius red staining based assay
[7] = test system: Mus musculus; experiment: Anti-NASH activity in CCl4-induced nonalcoholic steatohepatitis C57BL mouse at 100 mg/kg by Oil red-O staining based assay
[8] = test system: Mus musculus; experiment: Anti-NASH activity in CCl4-induced nonalcoholic steatohepatitis C57BL mouse assessed as reduction in serum ALT level at 100 mg/kg
[9] = test system: Mus musculus; experiment: Anti-NASH activity in CCl4-induced nonalcoholic steatohepatitis C57BL mouse assessed as reduction in serum AST level at 100 mg/kg
[10] = test system: Mus musculus; experiment: Anti-NASH activity in CCl4-induced nonalcoholic steatohepatitis C57BL mouse assessed as reduction in LDH level at 100 mg/kg
[11] = test system: Mus musculus; experiment: Anti-NASH activity in CCl4-induced nonalcoholic steatohepatitis C57BL mouse assessed as reduction in triglyceride level at 100 mg/kg administered for 14 days; settings: time 14.0 day
[12] = test system: Mus musculus; experiment: Anti-NASH activity in CCl4-induced nonalcoholic steatohepatitis C57BL mouse assessed as reduction in total cholesterol level at 100 mg/kg administered for 14 days; settings: time 14.0 day
[13] = test system: Mus musculus; experiment: Anti-NASH activity in CCl4-induced nonalcoholic steatohepatitis C57BL mouse assessed as reduction in malondialdehyde level at 100 mg/kg administered for 14 days; settings: time 14.0 day
[14] = test system: Mus musculus; experiment: Anti-NASH activity in CCl4-induced nonalcoholic steatohepatitis C57BL mouse assessed as decrease in IL-2 expression at 100 mg/kg by flow cytometry; settings: time 14.0 day
[15] = test system: Mus musculus; experiment: Anti-NASH activity in CCl4-induced nonalcoholic steatohepatitis C57BL mouse assessed as decrease in IL-17A expression at 100 mg/kg by flow cytometry; settings: time 14.0 day
[16] = test system: Mus musculus; experiment: Anti-NASH activity in CCl4-induced nonalcoholic steatohepatitis C57BL mouse assessed as decrease in IFN expression at 100 mg/kg by flow cytometry; settings: time 14.0 day
[17] = test system: Mus musculus; experiment: Anti-NASH activity in CCl4-induced nonalcoholic steatohepatitis C57BL mouse assessed as reduction in liver index at 30 to 100 mg/kg checked in presence of 60 mg/kg vitamin E; settings: dose 30-100 mg/kg
[18] = test system: Mus musculus; experiment: Anti-NASH activity in CCl4-induced nonalcoholic steatohepatitis C57BL mouse assessed as reduction in steatosis at 30 to 100 mg/kg checked in presence of vitamin E by H and E staining based assay; settings: dose 30-100 mg/kg
[19] = test system: Mus musculus; experiment: Anti-NASH activity in CCl4-induced nonalcoholic steatohepatitis C57BL mouse assessed as reduction in liver ballooning degeneration at 30 to 100 mg/kg checked in presence of vitamin E by H and E staining based assay; settings: dose 30-100 mg/kg
[20] = test system: Mus musculus; experiment: Anti-NASH activity in CCl4-induced nonalcoholic steatohepatitis C57BL mouse assessed as reduction in liver lobular inflammation at 30 to 100 mg/kg checked in presence of vitamin E by H and E staining based assay; settings: dose 30-100 mg/kg
[21] = test system: Mus musculus; experiment: Anti-NASH activity in CCl4-induced nonalcoholic steatohepatitis C57BL mouse assessed as reduction in liver fibrosis at 30 to 100 mg/kg checked in presence of vitamin E by sirius red staining based assay; settings: dose 30-100 mg/kg
[22] = test system: Mus musculus; experiment: Anti-NASH activity in CCl4-induced nonalcoholic steatohepatitis C57BL mouse at 30 to 100 mg/kg checked in presence of vitamin E by Oil red-O staining based assay; settings: dose 30-100 mg/kg
[23] = test system: Mus musculus; experiment: Anti-NASH activity in CCl4-induced nonalcoholic steatohepatitis C57BL mouse assessed as reduction in serum ALT level at 30 to 100 mg/kg checked in presence of vitamin E; settings: dose 30-100 mg/kg
[24] = test system: Mus musculus; experiment: Anti-NASH activity in CCl4-induced nonalcoholic steatohepatitis C57BL mouse assessed as reduction in serum AST level at 30 to 100 mg/kg checked in presence of vitamin E; settings: dose 30-100 mg/kg
[25] = test system: Mus musculus; experiment: Anti-NASH activity in CCl4-induced nonalcoholic steatohepatitis C57BL mouse assessed as reduction in LDH level at 100 mg/kg checked in presence of vitamin E
[26] = test system: Mus musculus; experiment: Anti-NASH activity in CCl4-induced nonalcoholic steatohepatitis C57BL mouse assessed as reduction in triglyceride level at 30 mg/kg checked in presence of vitamin E
[27] = test system: Mus musculus; experiment: Anti-NASH activity in CCl4-induced nonalcoholic steatohepatitis C57BL mouse assessed as reduction in total cholesterol level at 30 mg/kg checked in presence of vitamin E
[28] = test system: Mus musculus; experiment: Anti-NASH activity in CCl4-induced nonalcoholic steatohepatitis C57BL mouse assessed as reduction in malondialdehyde level at 30 mg/kg checked in presence of vitamin E
[29] = test system: Mus musculus; experiment: Anti-NASH activity in CCl4-induced nonalcoholic steatohepatitis C57BL mouse assessed as decrease in IL-2 expression at 30 mg/kg checked in presence of vitamin E by flow cytometry; settings: time 14.0 day
[30] = test system: Mus musculus; experiment: Anti-NASH activity in CCl4-induced nonalcoholic steatohepatitis C57BL mouse assessed as decrease in IL-17A expression at 30 mg/kg checked in presence of vitamin E by flow cytometry; settings: time 14.0 day
[31] = test system: Mus musculus; experiment: Anti-NASH activity in CCl4-induced nonalcoholic steatohepatitis C57BL mouse assessed as decrease in IFN expression at 100 mg/kg checked in presence of vitamin E by flow cytometry; settings: time 14.0 day
[32] = test system: Mus musculus; experiment: Anti-NASH activity in CCl4-induced nonalcoholic steatohepatitis C57BL mouse assessed as reduction in liver index at 60 mg/kg checked in presence of 30 to 100 mg/kg JBP485
[33] = test system: Mus musculus; experiment: Anti-NASH activity in CCl4-induced nonalcoholic steatohepatitis C57BL mouse assessed as reduction in liver index at 60 mg/kg
[34] = test system: Mus musculus; experiment: Anti-NASH activity in CCl4-induced nonalcoholic steatohepatitis C57BL mouse assessed as reduction in steatosis at 60 mg/kg checked in presence of 30 to 100 mg/kg JBP485 by H and E staining based assay
[35] = test system: Mus musculus; experiment: Anti-NASH activity in CCl4-induced nonalcoholic steatohepatitis C57BL mouse assessed as reduction in liver ballooning degeneration at 60 mg/kg checked in presence of 30 to 100 mg/kg JBP485 by H and E staining based assay
[36] = test system: Mus musculus; experiment: Anti-NASH activity in CCl4-induced nonalcoholic steatohepatitis C57BL mouse assessed as reduction in liver lobular inflammation at 60 mg/kg checked in presence of 30 to 100 mg/kg JBP485 by H and E staining based assay
[37] = test system: Mus musculus; experiment: Anti-NASH activity in CCl4-induced nonalcoholic steatohepatitis C57BL mouse assessed as reduction in liver fibrosis at 60 mg/kg checked in presence of 30 to 100 mg/kg JBP485 by sirius red staining based assay
[38] = test system: Mus musculus; experiment: Anti-NASH activity in CCl4-induced nonalcoholic steatohepatitis C57BL mouse at 60 mg/kg checked in presence of 30 to 100 mg/kg JBP485 by Oil red-O staining based assay
[39] = test system: Mus musculus; experiment: Anti-NASH activity in CCl4-induced nonalcoholic steatohepatitis C57BL mouse assessed as reduction in steatosis at 60 mg/kg by H and E staining based assay
[40] = test system: Mus musculus; experiment: Anti-NASH activity in CCl4-induced nonalcoholic steatohepatitis C57BL mouse assessed as reduction in liver ballooning degeneration at 60 mg/kg by H and E staining based assay
[41] = test system: Mus musculus; experiment: Anti-NASH activity in CCl4-induced nonalcoholic steatohepatitis C57BL mouse assessed as reduction in liver lobular inflammation at 60 mg/kg by H and E staining based assay
[42] = test system: Mus musculus; experiment: Anti-NASH activity in CCl4-induced nonalcoholic steatohepatitis C57BL mouse assessed as reduction in liver fibrosis at 60 mg/kg by sirius red staining based assay
[43] = test system: Mus musculus; experiment: Anti-NASH activity in CCl4-induced nonalcoholic steatohepatitis C57BL mouse at 60 mg/kg by Oil red-O staining based assay
[44] = test system: Mus musculus; experiment: Anti-NASH activity in CCl4-induced nonalcoholic steatohepatitis C57BL mouse assessed as reduction in serum ALT level at 60 mg/kg checked in presence of 30 to 100 mg/kg JBP485
[45] = test system: Mus musculus; experiment: Anti-NASH activity in CCl4-induced nonalcoholic steatohepatitis C57BL mouse assessed as reduction in serum AST level at 60 mg/kg checked in presence of 30 to 100 mg/kg JBP485
[46] = test system: Mus musculus; experiment: Anti-NASH activity in CCl4-induced nonalcoholic steatohepatitis C57BL mouse assessed as reduction in LDH level at 60 mg/kg checked in presence of JBP485
[47] = test system: Mus musculus; experiment: Anti-NASH activity in CCl4-induced nonalcoholic steatohepatitis C57BL mouse assessed as reduction in triglyceride level at 60 mg/kg
[48] = test system: Mus musculus; experiment: Anti-NASH activity in CCl4-induced nonalcoholic steatohepatitis C57BL mouse assessed as reduction in total cholesterol level at 60 mg/kg
[49] = test system: Mus musculus; experiment: Anti-NASH activity in CCl4-induced nonalcoholic steatohepatitis C57BL mouse assessed as reduction in triglyceride level at 60 mg/kg checked in presence of JBP485
[50] = test system: Mus musculus; experiment: Anti-NASH activity in CCl4-induced nonalcoholic steatohepatitis C57BL mouse assessed as reduction in total cholesterol level at 60 mg/kg checked in presence of JBP485
[51] = test system: Mus musculus; experiment: Anti-NASH activity in CCl4-induced nonalcoholic steatohepatitis C57BL mouse assessed as reduction in malondialdehyde level at 60 mg/kg
[52] = test system: Mus musculus; experiment: Anti-NASH activity in CCl4-induced nonalcoholic steatohepatitis C57BL mouse assessed as reduction in malondialdehyde level at 60 mg/kg checked in presence of JBP485
[53] = test system: Mus musculus; experiment: Anti-NASH activity in CCl4-induced nonalcoholic steatohepatitis C57BL mouse assessed as decrease in IL-2 expression at 60 mg/kg checked in presence of JBP485 by flow cytometry; settings: time 14.0 day
[54] = test system: Mus musculus; experiment: Anti-NASH activity in CCl4-induced nonalcoholic steatohepatitis C57BL mouse assessed as decrease in IL-17A expression at 60 mg/kg checked in presence of JBP485 by flow cytometry; settings: time 14.0 day
[55] = test system: Mus musculus; experiment: Anti-NASH activity in CCl4-induced nonalcoholic steatohepatitis C57BL mouse assessed as decrease in IFN expression at 60 mg/kg checked in presence of JBP485 by flow cytometry; settings: time 14.0 day

Measured: Activity

Cc1c(C)c2c(c(C)c1OC(=O)CCC(=O)O[C@@H]1C[C@H]3C(=O)N[C@@H](CO)C(=O)N3C1)CC[C@@](C)(CCC[C@H](C)CCC[C@H](C)CCCC(C)C)O2
active: [1] | [2] | [3] | [4] | [5] | [6] | [7] | [8] | [9] | [10] | [11] | [12] | [13] | [14] | [15] | [16]

O=C1N[C@@H](CO)C(=O)N2C[C@H](O)C[C@@H]12
active: [1] | [17] | [3] | [4] | [5] | [6] | [7] | [18] | [19] | [20] | [21] | [22] | [23] | [24] | [25] | [11] | [12] | [26] | [27] | [13] | [28] | [29] | [30] | [31]

VITAMIN E
active: [32] | [33] | [34] | [35] | [36] | [37] | [38] | [39] | [40] | [41] | [42] | [43] | [44] | [45] | [46] | [47] | [48] | [49] | [50] | [51] | [52] | [53] | [54] | [55]

From ChEMBL document CHEMBL5131407, “Design, synthesis and activity evaluation of prodrug form JBP485 and Vitamin E for alleviation of NASH” (Bioorg Med Chem Lett, 2022)
